Assay results reported in patent publication US20250388583A1, “COMPOUNDS AND METHOD FOR PKMYT1 INHIBITION” (Engine Biosciences Pte. Ltd., priority 2022, published 2025).

Assays:
PKMYT1 = PKMYT1 (Homo sapiens (Human), UniProt Q99640); assay: In vitro assay: kinase binding to immobilized ligand, captured kinase measured by qPCR
LCK = LCK (Homo sapiens (Human), UniProt P06239); assay: as above
Text: Example B-1: In Vitro Assay
Compounds that bind the kinase active site and directly (sterically) or indirectly (allosterically) prevent kinase binding to an immobilized ligand and reduce the amount of kinase captured on the solid support. Screening “hits” were identified by measuring the amount of kinase captured in test versus control samples by using a quantitative, precise and ultra-sensitive qPCR method that detect the associated DNA label. In a similar manner, dissociation constants (Kd's) for test compound-kinase interactions were calculated by measuring the amount of kinase captured on the solid support as a function of the test compound concentration.

LCK, sequence (P06239 whole entry): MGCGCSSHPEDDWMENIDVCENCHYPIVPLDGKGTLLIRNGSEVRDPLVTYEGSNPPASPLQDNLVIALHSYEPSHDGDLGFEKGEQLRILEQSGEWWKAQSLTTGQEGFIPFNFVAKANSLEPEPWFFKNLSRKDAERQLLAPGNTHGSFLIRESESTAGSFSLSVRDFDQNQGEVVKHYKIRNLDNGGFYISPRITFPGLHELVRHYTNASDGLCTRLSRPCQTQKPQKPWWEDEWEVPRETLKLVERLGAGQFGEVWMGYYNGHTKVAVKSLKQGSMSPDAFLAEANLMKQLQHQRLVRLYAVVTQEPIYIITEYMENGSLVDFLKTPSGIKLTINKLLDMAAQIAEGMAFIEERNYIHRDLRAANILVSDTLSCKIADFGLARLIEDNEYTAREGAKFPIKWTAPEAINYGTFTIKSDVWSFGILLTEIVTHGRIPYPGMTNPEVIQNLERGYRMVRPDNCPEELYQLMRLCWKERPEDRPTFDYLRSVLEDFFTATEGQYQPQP
PKMYT1, sequence (Q99640 whole entry): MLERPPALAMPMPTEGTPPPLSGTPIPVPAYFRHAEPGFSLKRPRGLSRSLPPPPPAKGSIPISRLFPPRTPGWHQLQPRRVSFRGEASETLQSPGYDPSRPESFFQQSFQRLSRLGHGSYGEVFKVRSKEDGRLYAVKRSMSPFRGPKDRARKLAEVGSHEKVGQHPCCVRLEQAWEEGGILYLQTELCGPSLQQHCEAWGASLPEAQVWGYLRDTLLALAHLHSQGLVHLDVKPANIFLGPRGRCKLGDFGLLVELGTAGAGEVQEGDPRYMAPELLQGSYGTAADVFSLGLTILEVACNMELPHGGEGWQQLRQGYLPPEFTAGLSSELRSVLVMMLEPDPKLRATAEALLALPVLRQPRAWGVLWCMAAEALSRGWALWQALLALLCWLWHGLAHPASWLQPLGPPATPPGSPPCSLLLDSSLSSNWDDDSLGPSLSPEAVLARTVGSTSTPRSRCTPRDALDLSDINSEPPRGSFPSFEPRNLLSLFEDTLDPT

`Cc1ccc(O)c(C)c1-n1c(N)c(C(N)=O)c2cnc(C(F)(F)F)nc21` [Compound 608, 6-amino-7-(3-hydroxy-2,6-dimethylphenyl)-2-(trifluoromethyl)-7H-pyrrolo[2,3-d]pyrimidine-5-carboxamide] was tested, and the IC50 (PKMYT1) was under 50 nM.
`Cc1ccc(O)c(C)c1-c1c(N)c(C(N)=O)c2nccc(C)n12` [Compound 548, 7-amino-6-(3-hydroxy-2,6-dimethyl-phenyl)-4-methyl-pyrrolo[1,2-a]pyrimidine-8-carboxamide] gave an IC50 (PKMYT1) of 100 to 1000 nM.
`Cc1ccn2c(-c3c(C)ccc(O)c3C)c(N)c(C(N)=O)c2c1` [Compound 552, 2-amino-3-(3-hydroxy-2,6-dimethylphenyl)-7-methylindolizine-1-carboxamide] was tested, and the IC50 (PKMYT1) was 100 to 1000 nM.
In the case of `Cc1ccc(O)c(C)c1-n1c(N)c(C(N)=O)c2cnc(S(C)(=O)=O)nc21` [Compound 625, 6-amino-7-(3-hydroxy-2,6-dimethylphenyl)-2-(methylsulfonyl)-7H-pyrrolo[2,3-d]pyrimidine-5-carboxamide], the IC50 (PKMYT1) was under 50 nM.
`Cc1c(O)cc(F)c(C)c1-n1c(N)c(C(N)=O)c2cnc(C3CC3)c(C#N)c21` [Compound 663, 2-amino-7-cyano-6-cyclopropyl-1-(3-fluoro-5-hydroxy-2,6-dimethyl-phenyl)pyrrolo[3,2-c]pyridine-3-carboxamide] showed an IC50 (PKMYT1) of under 50 nM and an IC50 (LCK) of under 50 nM.
For `Cc1cn2c(C(N)=O)c(N)c(-c3c(C)ccc(O)c3C)c2cn1` [Compound 555, 7-amino-8-(3-hydroxy-2,6-dimethyl-phenyl)-3-methyl-pyrrolo[1,2-a]pyrazine-6-carboxamide], the IC50 (PKMYT1) was under 50 nM.
Molecule `Cc1c(O)cc(F)c(C)c1-n1c(N)c(C(N)=O)c2cncc(F)c21` [Compound 599, 2-amino-7-fluoro-1-(3-fluoro-5-hydroxy-2,6-dimethylphenyl)-1H-pyrrolo[3,2-c]pyridine-3-carboxamide] has an IC50 (PKMYT1) of under 50 nM and an IC50 (LCK) of under 50 nM.
With `Cc1ccc(O)c(C)c1-n1c(N)c(C(N)=O)c2cnc(CO)nc21` [Compound 592, 6-amino-7-(3-hydroxy-2,6-dimethylphenyl)-2-(hydroxymethyl)-7H-pyrrolo[2,3-d]pyrimidine-5-carboxamide] the IC50 (PKMYT1) was 50 to 100 nM and the IC50 (LCK) was 100 to 1000 nM.
In the case of `Cc1ccc(O)c(C)c1-n1c(N)c(C(N)=O)c2cnc(N3CC[C@H](O)C3)nc21` [Compound 581, 6-amino-7-(3-hydroxy-2,6-dimethyl-phenyl)-2-[(3S)-3-hydroxypyrrolidin-1-yl]pyrrolo[2,3-d]pyrimidine-5-carboxamide], the IC50 (PKMYT1) was under 50 nM.
Work on `Cc1ccc(O)c(C)c1-n1c(N)c(C(N)=O)c2cnc(N3CC[C@@H](O)C3)nc21` [Compound 583, 6-amino-7-(3-hydroxy-2,6-dimethyl-phenyl)-2-[(3R)-3-hydroxypyrrolidin-1-yl]pyrrolo[2,3-d]pyrimidine-5-carboxamide] yielded an IC50 (PKMYT1) of under 50 nM.
`CCN(CC)c1ncc2c(C(N)=O)c(N)n(-c3c(C)ccc(O)c3C)c2n1` [Compound 609, 6-amino-2-(diethylamino)-7-(3-hydroxy-2,6-dimethylphenyl)-7H-pyrrolo[2,3-d]pyrimidine-5-carboxamide] was tested, and the IC50 (PKMYT1) was under 50 nM.
`Cc1ncc2c(C(N)=O)c(N)n(-c3c(C)ccc(O)c3C)c2n1` (single isomer, unassigned) [Compound 578, 6-amino-7-(3-hydroxy-2,6-dimethyl-phenyl)-2-methyl-pyrrolo[2,3-d]pyrimidine-5-carboxamide] was tested, and the IC50 (LCK) was over 1000 nM.
`Cc1ccc(O)c(C)c1-n1c(N)c(C(N)=O)c2cncc(F)c21` (atropisomer, axis not shown) [Compound 624, 2-amino-7-fluoro-1-(3-hydroxy-2,6-dimethyl-phenyl)pyrrolo[3,2-c]pyridine-3-carboxamide] showed an IC50 (PKMYT1) of under 50 nM.
`Cc1ccc(O)c(C)c1-n1c(N)c(C(N)=O)c2cnc(NCCO)nc21` (single isomer, unassigned) [Compound 585, 6-amino-7-(3-hydroxy-2,6-dimethylphenyl)-2-((2-hydroxyethyl)amino)-7H-pyrrolo[2,3-d]pyrimidine-5-carboxamide] showed an IC50 (PKMYT1) of over 1000 nM.
`Cc1ccn2c(-c3c(C)ccc(O)c3C)c(N)c(C(N)=O)c2n1` [Compound 550, 7-amino-6-(3-hydroxy-2,6-dimethyl-phenyl)-2-methyl-pyrrolo[1,2-a]pyrimidine-8-carboxamide] showed an IC50 (PKMYT1) of 100 to 1000 nM.
In the case of `Cc1ccc(O)c(C)c1-n1c(N)c(C(N)=O)c2c(C)ncc(F)c21` [Compound 582, 2-amino-7-fluoro-1-(3-hydroxy-2,6-dimethyl-phenyl)-4-methyl-pyrrolo[3,2-c]pyridine-3-carboxamide], the IC50 (PKMYT1) was under 50 nM.
`Cc1ncc2c(C(N)=O)c(N)n(-c3c(C)ccc(O)c3C)c2n1` (single isomer, unassigned) [Compound 577, 6-amino-7-(3-hydroxy-2,6-dimethyl-phenyl)-2-methyl-pyrrolo[2,3-d]pyrimidine-5-carboxamide] gave an IC50 (LCK) of under 50 nM.
Work on `Cc1c(O)cc(F)c(C)c1-n1c(N)c(C(N)=O)c2cnc(C3CC3)c(F)c21` [Compound 623, 2-amino-6-cyclopropyl-7-fluoro-1-(3-fluoro-5-hydroxy-2,6-dimethyl-phenyl)pyrrolo[3,2-c]pyridine-3-carboxamide] yielded an IC50 (PKMYT1) of under 50 nM.
`Cc1ccc(O)c(C)c1-n1c(N)c(C(N)=O)c2cnc(NCCO)nc21` (atropisomer, axis not shown) [Compound 588, 6-amino-7-(3-hydroxy-2,6-dimethylphenyl)-2-((2-hydroxyethyl)amino)-7H-pyrrolo[2,3-d]pyrimidine-5-carboxamide] showed an IC50 (PKMYT1) of under 50 nM.
For `Cc1ccc(O)c(C)c1-n1c(N)c(C(N)=O)c2cnc(N[C@@H]3CCC[C@H]3O)nc21` [Compound 580, 6-amino-7-(3-hydroxy-2,6-dimethylphenyl)-2-(((1R,2R)-2-hydroxycyclopentyl)amino)-7H-pyrrolo[2,3-d]pyrimidine-5-carboxamide], the IC50 (PKMYT1) was under 50 nM.
In the case of `Cc1cc2c(C(N)=O)c(N)n(-c3c(C)ncc(O)c3C)c2nc1C` [Compound 560, 2-amino-1-(5-hydroxy-2,4-dimethylpyridin-3-yl)-5,6-dimethyl-1H-pyrrolo[2,3-b]pyridine-3-carboxamide], the IC50 (LCK) was 100 to 1000 nM.
In the case of `Cc1ccc(O)c(C)c1-n1c(N)c(C(N)=O)c2cnc(N[C@@H]3CCC[C@@H]3O)nc21` (atropisomer, axis not shown) [Compound 591], the IC50 (PKMYT1) was 50 to 100 nM.
`Cc1ccc(O)c(C)c1-n1c(N)c(C(N)=O)c2cnc(NC(=O)[C@H]3CCCN3)nc21` [Compound 584, 6-amino-7-(3-hydroxy-2,6-dimethylphenyl)-2-(pyrrolidine-2-carboxamido)-7H-pyrrolo[2,3-d]pyrimidine-5-carboxamide] showed an IC50 (PKMYT1) of 100 to 1000 nM.
Work on `Cc1ccc(O)c(C)c1-n1c(N)c(C(N)=O)c2cnc(C#Cc3ccc(F)cc3)c(F)c21` [Compound 622, 2-amino-7-fluoro-6-((4-fluorophenyl)ethynyl)-1-(3-hydroxy-2,6-dimethylphenyl)-1H-pyrrolo[3,2-c]pyridine-3-carboxamide] yielded an IC50 (PKMYT1) of 50 to 100 nM.
`Cc1ccc(O)c(C)c1-n1c(N)c(C(N)=O)c2cc3c(nc21)OCCN3C` [Compound 568, 7-amino-6-(3-hydroxy-2,6-dimethylphenyl)-1-methyl-1,2,3,6-tetrahydropyrrolo [3′,2′:5,6]pyrido[2,3-b][1,4]oxazine-8-carboxamide] was tested, and the IC50 (PKMYT1) was under 50 nM.
`Cc1ccc(O)c(C)c1-n1c(N)c(C(N)=O)c2cncnc21` (single isomer, unassigned) [Compound 571, 6-amino-7-(3-hydroxy-2,6-dimethylphenyl)-7H-pyrrolo[2,3-d]pyrimidine-5-carboxamide] gave an IC50 (PKMYT1) of 100 to 1000 nM.
`Cc1c(O)cc(F)c(C)c1-n1c(N)c(C(N)=O)c2cnc(C3CC3)c(F)c21` (atropisomer, axis not shown) [Compound 655] was tested, and the IC50 (LCK) was under 50 nM.
Molecule `Cc1cnc2c(c1)c(C(N)=O)c(N)n2-c1c(C)ccc2ocnc12` [Compound 553, 2-amino-5-methyl-1-(5-methylbenzo[d]oxazol-4-yl)-1H-pyrrolo[2,3-b]pyridine-3-carboxamide] has an IC50 (PKMYT1) of 100 to 1000 nM.
For `Cc1ccc(O)c(C)c1-n1c(N)c(C(N)=O)c2cnc(N[C@H]3CCC[C@@H]3O)nc21` [Compound 579, 6-amino-7-(3-hydroxy-2,6-dimethylphenyl)-2-(((1S,2S)-2-hydroxycyclopentyl)amino)-7H-pyrrolo[2,3-d]pyrimidine-5-carboxamide], the IC50 (PKMYT1) was under 50 nM.
In the case of `Cc1ncc2c(C(N)=O)c(N)n(-c3c(C)c(O)cc(F)c3C)c2n1` [Compound 595, 6-amino-7-(3-fluoro-5-hydroxy-2,6-dimethyl-phenyl)-2-methyl-pyrrolo[2,3-d]pyrimidine-5-carboxamide], the IC50 (PKMYT1) was under 50 nM.
`Cc1ccc(O)c(C)c1-n1c(N)c(C(N)=O)c2cnc(N3CC(O)C3)nc21` [Compound 573] showed an IC50 (PKMYT1) of under 50 nM.
In the case of `Cc1ccc(O)c(C)c1-n1c(N)c(C(N)=O)c2cncc(C#N)c21` [Compound 587, 2-amino-7-cyano-1-(3-hydroxy-2,6-dimethylphenyl)-1H-pyrrolo[3,2-c]pyridine-3-carboxamide], the IC50 (PKMYT1) was under 50 nM.
`Cc1ccc(O)c(C)c1-n1c(N)c(C(N)=O)c2cnc(Cl)nc21` [Compound 618, 6-amino-2-chloro-7-(3-hydroxy-2,6-dimethylphenyl)-7H-pyrrolo[2,3-d]pyrimidine-5-carboxamide] gave an IC50 (PKMYT1) of under 50 nM.
`Cc1ncc2c(C(N)=O)c(N)n(-c3c(C)c(O)cc(Cl)c3C)c2n1` [Compound 619, 6-amino-7-(3-chloro-5-hydroxy-2,6-dimethylphenyl)-2-methyl-7H-pyrrolo[2,3-d]pyrimidine-5-carboxamide] was tested, and the IC50 (PKMYT1) was under 50 nM.
Molecule `Cc1ccc(O)c(C)c1-n1c(N)c(C(N)=O)c2cc3c(nc21)CCN3` [Compound 620] has an IC50 (PKMYT1) of under 50 nM.
For `Cc1ccc(O)c(C)c1-n1c(N)c(C(N)=O)c2cnc(C#CC3CC3)nc21` [Compound 621], the IC50 (PKMYT1) was under 50 nM.
`Cc1cc2c(c(C)c1-n1c(N)c(C(N)=O)c3cc(Cl)cnc31)OCO2` [Compound 546, 2-amino-5-chloro-1-(4,6-dimethylbenzo[d][1,3]dioxol-5-yl)-1H-pyrrolo[2,3-b]pyridine-3-carboxamide] gave an IC50 (PKMYT1) of over 1000 nM.
